In ChEMBL document CHEMBL4665643 (Bioorg Med Chem Lett, 2019):

Key:
[1] = biological target: T1, Tyrosine-protein kinase JAK1 (Homo sapiens, UniProt P23458)
[2] = biological target: T1, Tyrosine-protein kinase JAK1; conditions: dose 0.1 µM, time 60.0 min
[3] = biological target: Tyrosine-protein kinase Fyn (Homo sapiens) (UniProt P06241); experiment: Inhibition of recombinant human C-terminal His-tagged full length FYN expressed in baculovirus expression system using Tyr 02 as substrate at 0.1 uM incubated for 60 mins by Z'-Lyte assay relative to control
[4] = biological target: High affinity nerve growth factor receptor (Homo sapiens) (UniProt P04629); experiment: Inhibition of recombinant human His-tagged TRKA (441 to 796 residues) expressed in baculovirus expression system using Tyr 01 as substrate at 0.1 uM incubated for 60 mins by Z'-Lyte assay relative to control
High affinity nerve growth factor receptor (Homo sapiens), sequence (P04629 33-796 limits assumed): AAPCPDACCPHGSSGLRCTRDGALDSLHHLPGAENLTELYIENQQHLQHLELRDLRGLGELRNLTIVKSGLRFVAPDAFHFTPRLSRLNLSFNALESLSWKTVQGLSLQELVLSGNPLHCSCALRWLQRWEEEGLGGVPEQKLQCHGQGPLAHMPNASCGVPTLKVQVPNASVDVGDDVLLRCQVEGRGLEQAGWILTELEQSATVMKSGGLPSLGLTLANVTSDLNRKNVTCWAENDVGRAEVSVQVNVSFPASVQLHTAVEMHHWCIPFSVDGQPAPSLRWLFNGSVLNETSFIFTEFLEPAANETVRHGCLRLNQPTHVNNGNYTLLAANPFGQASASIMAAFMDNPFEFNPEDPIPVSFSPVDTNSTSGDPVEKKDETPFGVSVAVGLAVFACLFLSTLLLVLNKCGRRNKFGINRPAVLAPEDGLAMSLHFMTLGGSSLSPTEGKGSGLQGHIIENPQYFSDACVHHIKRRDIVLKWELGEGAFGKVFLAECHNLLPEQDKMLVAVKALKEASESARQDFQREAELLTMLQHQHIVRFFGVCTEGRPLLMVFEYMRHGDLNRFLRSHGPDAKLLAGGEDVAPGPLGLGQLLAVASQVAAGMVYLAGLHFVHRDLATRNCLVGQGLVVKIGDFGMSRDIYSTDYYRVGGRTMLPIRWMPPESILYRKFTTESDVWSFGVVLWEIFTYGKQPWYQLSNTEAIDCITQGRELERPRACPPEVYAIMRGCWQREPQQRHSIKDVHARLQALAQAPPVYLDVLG

[5] = biological target: Proto-oncogene tyrosine-protein kinase Src (Homo sapiens) (UniProt P12931); experiment: Inhibition of recombinant human C-terminal His-tagged full length SRC expressed in baculovirus expression system using Tyr 02 as substrate at 0.1 uM incubated for 60 mins by Z'-Lyte assay relative to control
[6] = biological target: Tyrosine-protein kinase Yes (Homo sapiens) (UniProt P07947); experiment: Inhibition of recombinant human GST-tagged full length YES expressed in baculovirus expression system using Tyr 02 as substrate at 0.1 uM incubated for 60 mins by Z'-Lyte assay relative to control
Tyrosine-protein kinase Yes (Homo sapiens), sequence (P07947 2-543 limits assumed): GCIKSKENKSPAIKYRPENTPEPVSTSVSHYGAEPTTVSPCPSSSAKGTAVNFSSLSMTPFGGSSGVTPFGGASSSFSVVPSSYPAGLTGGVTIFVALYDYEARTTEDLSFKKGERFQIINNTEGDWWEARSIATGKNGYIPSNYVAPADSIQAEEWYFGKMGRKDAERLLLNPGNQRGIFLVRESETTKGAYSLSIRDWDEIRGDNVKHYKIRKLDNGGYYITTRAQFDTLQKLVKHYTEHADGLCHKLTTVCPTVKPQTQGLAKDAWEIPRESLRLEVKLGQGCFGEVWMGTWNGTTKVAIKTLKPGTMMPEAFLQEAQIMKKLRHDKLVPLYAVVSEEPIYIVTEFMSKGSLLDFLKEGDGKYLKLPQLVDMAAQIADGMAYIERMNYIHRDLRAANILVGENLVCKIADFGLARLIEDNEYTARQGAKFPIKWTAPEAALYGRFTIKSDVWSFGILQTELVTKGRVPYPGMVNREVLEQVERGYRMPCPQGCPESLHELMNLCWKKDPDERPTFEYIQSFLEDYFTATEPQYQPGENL

[7] = biological target: Macrophage colony-stimulating factor 1 receptor (Homo sapiens) (UniProt P07333); experiment: Inhibition of recombinant human His-tagged CSF1R (538 to 910 residues) expressed in baculovirus expression system using Tyr 01 as substrate at 0.1 uM incubated for 60 mins by Z'-Lyte assay relative to control
Macrophage colony-stimulating factor 1 receptor (Homo sapiens), sequence (P07333 whole entry, the tested form may be a part): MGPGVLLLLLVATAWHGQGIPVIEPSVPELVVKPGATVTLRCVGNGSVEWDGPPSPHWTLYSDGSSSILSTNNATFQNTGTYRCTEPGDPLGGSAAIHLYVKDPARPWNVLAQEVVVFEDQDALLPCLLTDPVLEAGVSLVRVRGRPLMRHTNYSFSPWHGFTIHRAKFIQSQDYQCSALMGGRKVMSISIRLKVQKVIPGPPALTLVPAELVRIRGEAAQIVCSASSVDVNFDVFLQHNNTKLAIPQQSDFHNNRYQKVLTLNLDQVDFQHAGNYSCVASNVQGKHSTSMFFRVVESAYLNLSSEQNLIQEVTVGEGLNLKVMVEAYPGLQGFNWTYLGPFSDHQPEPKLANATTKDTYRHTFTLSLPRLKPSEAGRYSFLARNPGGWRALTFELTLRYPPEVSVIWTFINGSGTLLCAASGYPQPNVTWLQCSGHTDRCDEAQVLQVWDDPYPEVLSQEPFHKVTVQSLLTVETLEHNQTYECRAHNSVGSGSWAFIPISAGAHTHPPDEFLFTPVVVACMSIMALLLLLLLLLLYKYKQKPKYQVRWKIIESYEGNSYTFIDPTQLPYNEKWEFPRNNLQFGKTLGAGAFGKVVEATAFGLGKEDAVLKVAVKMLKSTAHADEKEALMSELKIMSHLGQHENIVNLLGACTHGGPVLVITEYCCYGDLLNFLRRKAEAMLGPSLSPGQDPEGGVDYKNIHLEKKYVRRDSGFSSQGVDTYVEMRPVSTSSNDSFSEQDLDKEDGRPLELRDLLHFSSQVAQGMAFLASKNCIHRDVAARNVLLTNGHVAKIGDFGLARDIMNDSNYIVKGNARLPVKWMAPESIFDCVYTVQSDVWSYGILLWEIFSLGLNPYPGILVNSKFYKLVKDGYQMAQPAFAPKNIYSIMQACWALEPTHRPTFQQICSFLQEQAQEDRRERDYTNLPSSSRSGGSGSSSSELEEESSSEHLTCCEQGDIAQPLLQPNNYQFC

[8] = biological target: Mitogen-activated protein kinase 3 (Homo sapiens) (UniProt P27361); experiment: Inhibition of recombinant human GST-tagged full length ERK1 expressed in Escherichia coli expression system using Ser/Thr 03 as substrate at 0.1 uM incubated for 60 mins by Z'-Lyte assay relative to control
Mitogen-activated protein kinase 3 (Homo sapiens), sequence (P27361 whole entry): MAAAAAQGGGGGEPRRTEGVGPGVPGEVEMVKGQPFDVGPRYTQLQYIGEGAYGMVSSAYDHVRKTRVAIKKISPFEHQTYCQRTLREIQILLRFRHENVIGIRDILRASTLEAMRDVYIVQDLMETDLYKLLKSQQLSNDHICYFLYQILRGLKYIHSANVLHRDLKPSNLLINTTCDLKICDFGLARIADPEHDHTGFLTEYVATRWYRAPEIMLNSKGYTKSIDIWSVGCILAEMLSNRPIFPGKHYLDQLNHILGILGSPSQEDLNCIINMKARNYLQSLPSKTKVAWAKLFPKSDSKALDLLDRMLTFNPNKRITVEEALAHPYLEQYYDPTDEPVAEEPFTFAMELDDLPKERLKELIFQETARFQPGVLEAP

[9] = biological target: Aurora kinase B (Homo sapiens) (UniProt Q96GD4); experiment: Inhibition of recombinant human His-tagged full length Aurora B expressed in baculovirus expression system using Ser/Thr 01 as substrate at 0.1 uM incubated for 60 mins by Z'-Lyte assay relative to control
Aurora kinase B (Homo sapiens), sequence (Q96GD4 whole entry, the tested form may be a part): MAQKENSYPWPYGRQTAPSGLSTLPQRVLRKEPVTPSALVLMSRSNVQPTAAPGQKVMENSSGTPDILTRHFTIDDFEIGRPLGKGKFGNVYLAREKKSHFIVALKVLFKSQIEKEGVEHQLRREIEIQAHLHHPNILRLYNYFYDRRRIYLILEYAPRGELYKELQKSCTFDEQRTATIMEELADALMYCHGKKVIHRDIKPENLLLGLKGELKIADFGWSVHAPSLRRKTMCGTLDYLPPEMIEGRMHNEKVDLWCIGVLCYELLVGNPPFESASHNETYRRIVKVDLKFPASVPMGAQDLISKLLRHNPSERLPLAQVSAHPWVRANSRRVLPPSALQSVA

[10] = biological target: Myosin light chain kinase, smooth muscle (Homo sapiens) (UniProt Q15746); experiment: Inhibition of tracer 236 binding to recombinant human GST-tagged MYLK (1428 to 1771 residues) expressed in baculovirus expression system at 0.1 uM incubated for 60 mins by Lanthascreen assay relative to control
[11] = biological target: T2, Serine/threonine-protein kinase TAO2 (Homo sapiens) (UniProt Q9UL54); experiment: Inhibition of recombinant human GST-tagged TAO2 (1 to 314 residues) expressed in baculovirus expression system using Ser/Thr 07 as substrate at 0.1 uM incubated for 60 mins by Z'-Lyte assay relative to control
T2 sequence (whole entry): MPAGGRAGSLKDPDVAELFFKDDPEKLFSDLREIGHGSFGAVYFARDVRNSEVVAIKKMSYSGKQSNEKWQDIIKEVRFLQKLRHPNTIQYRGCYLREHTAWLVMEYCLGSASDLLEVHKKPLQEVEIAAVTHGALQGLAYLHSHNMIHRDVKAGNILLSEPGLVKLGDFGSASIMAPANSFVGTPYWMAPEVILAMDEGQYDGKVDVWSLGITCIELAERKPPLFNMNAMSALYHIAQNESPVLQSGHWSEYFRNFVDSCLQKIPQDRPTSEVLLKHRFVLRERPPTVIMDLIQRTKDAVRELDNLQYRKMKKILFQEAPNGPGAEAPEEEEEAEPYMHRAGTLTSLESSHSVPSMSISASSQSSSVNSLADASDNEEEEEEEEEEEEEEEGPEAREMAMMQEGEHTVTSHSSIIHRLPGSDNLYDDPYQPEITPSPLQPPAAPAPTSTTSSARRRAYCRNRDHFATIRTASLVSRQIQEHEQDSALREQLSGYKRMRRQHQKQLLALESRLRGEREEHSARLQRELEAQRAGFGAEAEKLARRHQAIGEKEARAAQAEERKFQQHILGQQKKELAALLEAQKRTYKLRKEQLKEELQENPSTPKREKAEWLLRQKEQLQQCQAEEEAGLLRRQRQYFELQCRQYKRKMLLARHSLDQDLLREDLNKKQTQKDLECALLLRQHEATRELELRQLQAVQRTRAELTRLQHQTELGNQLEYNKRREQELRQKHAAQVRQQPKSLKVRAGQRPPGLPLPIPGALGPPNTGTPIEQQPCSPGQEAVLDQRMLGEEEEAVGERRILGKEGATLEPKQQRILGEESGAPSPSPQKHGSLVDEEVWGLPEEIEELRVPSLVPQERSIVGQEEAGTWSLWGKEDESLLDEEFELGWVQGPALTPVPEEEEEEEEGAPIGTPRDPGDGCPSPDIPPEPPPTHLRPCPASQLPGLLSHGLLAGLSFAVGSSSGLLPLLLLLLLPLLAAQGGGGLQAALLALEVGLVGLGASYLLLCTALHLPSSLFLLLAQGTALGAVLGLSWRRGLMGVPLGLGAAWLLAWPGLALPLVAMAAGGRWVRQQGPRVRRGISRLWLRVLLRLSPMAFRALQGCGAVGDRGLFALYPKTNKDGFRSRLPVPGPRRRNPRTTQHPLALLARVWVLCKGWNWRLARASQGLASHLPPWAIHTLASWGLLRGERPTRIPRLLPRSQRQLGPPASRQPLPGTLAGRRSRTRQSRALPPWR

[12] = biological target: Receptor tyrosine-protein kinase erbB-2 (Homo sapiens) (UniProt P04626); experiment: Inhibition of recombinant human His-tagged ERBB2 (676 to 1255 residues) expressed in baculovirus expression system using Tyr 06 as substrate at 0.1 uM incubated for 60 mins by Z'-Lyte assay relative to control
[13] = biological target: Mitogen-activated protein kinase 1 (Homo sapiens) (UniProt P28482); experiment: Inhibition of recombinant human GST-tagged full length ERK2 expressed in baculovirus expression system using Ser/Thr 03 as substrate at 0.1 uM incubated for 60 mins by Z'-Lyte assay relative to control
Mitogen-activated protein kinase 1 (Homo sapiens), sequence (P28482 whole entry): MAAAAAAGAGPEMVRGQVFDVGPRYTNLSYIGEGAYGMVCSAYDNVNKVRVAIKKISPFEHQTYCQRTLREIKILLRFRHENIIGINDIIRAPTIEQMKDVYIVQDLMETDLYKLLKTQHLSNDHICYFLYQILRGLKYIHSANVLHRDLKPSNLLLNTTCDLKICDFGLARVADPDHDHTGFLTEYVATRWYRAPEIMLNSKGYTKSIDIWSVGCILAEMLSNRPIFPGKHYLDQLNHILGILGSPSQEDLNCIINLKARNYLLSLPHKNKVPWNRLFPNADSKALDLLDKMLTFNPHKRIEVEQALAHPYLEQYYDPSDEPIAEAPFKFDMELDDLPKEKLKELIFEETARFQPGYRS

[14] = biological target: MAP kinase-activated protein kinase 2 (Homo sapiens) (UniProt P49137); experiment: Inhibition of recombinant human His-tagged full length MAPKAPK2 expressed in Escherichia coli expression system using Ser/Thr 04 as substrate at 0.1 uM incubated for 60 mins by Z'-lyte assay relative to control
MAP kinase-activated protein kinase 2 (Homo sapiens), sequence (P49137 whole entry, looked up): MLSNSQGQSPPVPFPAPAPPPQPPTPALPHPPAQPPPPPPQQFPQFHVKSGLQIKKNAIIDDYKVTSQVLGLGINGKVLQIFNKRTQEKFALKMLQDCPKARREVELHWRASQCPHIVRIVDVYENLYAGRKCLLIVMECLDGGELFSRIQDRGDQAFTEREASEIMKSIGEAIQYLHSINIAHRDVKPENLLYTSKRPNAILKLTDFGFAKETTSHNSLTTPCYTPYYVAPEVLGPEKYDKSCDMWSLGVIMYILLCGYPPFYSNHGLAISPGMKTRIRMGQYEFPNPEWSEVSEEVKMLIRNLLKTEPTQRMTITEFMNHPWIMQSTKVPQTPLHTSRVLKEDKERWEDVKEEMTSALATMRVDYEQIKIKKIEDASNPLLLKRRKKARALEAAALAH

T1 sequence (P23458 whole entry): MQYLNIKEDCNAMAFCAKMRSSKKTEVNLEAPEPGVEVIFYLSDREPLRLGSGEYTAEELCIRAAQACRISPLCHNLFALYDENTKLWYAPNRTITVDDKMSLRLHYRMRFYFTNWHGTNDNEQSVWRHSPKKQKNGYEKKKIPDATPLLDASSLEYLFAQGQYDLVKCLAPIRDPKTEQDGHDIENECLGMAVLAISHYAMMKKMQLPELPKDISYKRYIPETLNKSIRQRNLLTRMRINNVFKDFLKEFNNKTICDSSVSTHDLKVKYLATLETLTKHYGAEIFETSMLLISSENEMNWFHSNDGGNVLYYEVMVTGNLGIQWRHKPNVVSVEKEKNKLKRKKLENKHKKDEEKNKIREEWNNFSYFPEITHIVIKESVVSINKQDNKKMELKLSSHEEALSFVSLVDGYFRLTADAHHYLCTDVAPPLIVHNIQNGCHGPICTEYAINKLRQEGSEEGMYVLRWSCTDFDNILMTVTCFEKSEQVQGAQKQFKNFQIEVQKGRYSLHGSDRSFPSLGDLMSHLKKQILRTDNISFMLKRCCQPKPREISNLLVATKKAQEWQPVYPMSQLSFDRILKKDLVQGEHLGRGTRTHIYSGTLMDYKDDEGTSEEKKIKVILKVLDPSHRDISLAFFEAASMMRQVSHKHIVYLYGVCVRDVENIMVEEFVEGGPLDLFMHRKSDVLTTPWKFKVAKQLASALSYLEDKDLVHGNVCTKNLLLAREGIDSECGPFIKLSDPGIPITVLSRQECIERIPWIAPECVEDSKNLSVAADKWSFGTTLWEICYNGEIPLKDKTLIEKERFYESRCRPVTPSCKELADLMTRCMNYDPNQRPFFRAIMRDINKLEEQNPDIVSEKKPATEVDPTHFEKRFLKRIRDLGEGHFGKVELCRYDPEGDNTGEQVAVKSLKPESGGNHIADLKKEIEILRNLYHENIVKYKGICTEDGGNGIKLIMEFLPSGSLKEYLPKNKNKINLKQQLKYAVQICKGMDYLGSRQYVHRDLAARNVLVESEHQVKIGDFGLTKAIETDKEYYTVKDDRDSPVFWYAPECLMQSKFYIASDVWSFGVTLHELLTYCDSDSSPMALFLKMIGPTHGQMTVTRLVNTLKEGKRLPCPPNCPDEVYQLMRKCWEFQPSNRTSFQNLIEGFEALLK

| SMILES | IC50 [1] [nM] | inhibition [2] [%] | inhibition [3] [%] | inhibition [4] [%] | inhibition [5] [%] | inhibition [6] [%] | inhibition [7] [%] | inhibition [8] [%] | inhibition [9] [%] | inhibition [10] [%] | inhibition [11] [%] | inhibition [12] [%] | inhibition [13] [%] | inhibition [14] [%] |
| --- | --- | --- | --- | --- | --- | --- | --- | --- | --- | --- | --- | --- | --- | --- |
| O=C(Nc1c[nH]nc1-c1cc(Cl)ccc1OC(F)F)c1cnn2cccnc12 | 1.2 | 100 | 95 | 59 | 38 | 32 | 6 | 5 | 3 | 2 | 1 | 1 | 1 | 0 |
| O=C(Nc1c[nH]nc1-c1cc2ccccc2cc1OC(F)F)c1cnn2cccnc12 | 2.2 | 96 | 78 | 23 | 35 | 33 | -3 | 0 | 5 | 0 | 8 | -6 | -4 | 6 |
| Cn1cc(NC(=O)c2cnn3cccnc23)c(-c2cc(Cl)ccc2OC(F)F)n1 | 1.7 | 96 | 89 | 44 | 28 | 30 | 29 | 4 | 1 | 11 | 4 | -1 | 4 | 10 |
